Source: US20220211846A1, “ABT-165 IN COMBINATION WITH FOLINIC ACID, 5-FLUOROURACIL, AND IRINOTECAN FOR THE TREATMENT OF CANCERS” (AbbVie Biotherapeutics Inc., priority 2017, published 2022)
Marks after values point to notes of the source that are not given here.

Columns and labels:
[1] = test system: HCT-116 human colon xenograft tumors; test: HCT-116 colon xenograft model; type: in vivo, female SCID mice
Protocol: The effect of anti-DLL4-VEGF DVD-Igs (ABT-165) in combination with chemotherapy on tumor growth was evaluated on HCT-116 human colon xenograft tumors in female SCID mice. Briefly, 5×10^6 cells were inoculated subcutaneously into the right hind flank. Tumors were allowed to establish for 14 days, at which point tumor volume was determined using electronic caliper measurements using the formula: L×W^2/2. Mice were allocated into treatment groups (n=9 per group) so that each cohort had equivalent mean tumor volume of 192 mm^3 prior to initiation of therapy. Animals were dosed with 5-fluorouracil (5-FU), folinic acid (leucovorin), irinotecan, anti-VEGF mAb (AB014), and/or anti-DLL4-VEGF DVD-Ig (ABT-165) at the dose and schedule in Table 4. An anti-tetanus toxoid mAb (AB095) was used as a non-targeting isotype control. Tumor volume was measured twice a week for the duration of the experiment.

[2] = target: human DLL4 (Homo sapiens, UniProt Q9NR61); test: Binding affinity to DLL4
[3] = test system: human VEGF; test: Binding affinity to VEGF
[4] = test system: DLL4-mediated Notch-1 activation; test: Inhibition of DLL4-mediated Notch-1 activation; type: cell-based
[5] = test system: human peripheral blood cells (PBC) from normal donors; test: Cytokine release by human peripheral blood cells; type: cell-based; settings: within expected range of negative control IgG1 antibodies
[6] = target: FcRn (Homo sapiens, UniProt P55899); test: Binding to FcRn; settings: compared with human IgG1
FcRn, sequence (P55899 24-297 limits assumed, species assumed): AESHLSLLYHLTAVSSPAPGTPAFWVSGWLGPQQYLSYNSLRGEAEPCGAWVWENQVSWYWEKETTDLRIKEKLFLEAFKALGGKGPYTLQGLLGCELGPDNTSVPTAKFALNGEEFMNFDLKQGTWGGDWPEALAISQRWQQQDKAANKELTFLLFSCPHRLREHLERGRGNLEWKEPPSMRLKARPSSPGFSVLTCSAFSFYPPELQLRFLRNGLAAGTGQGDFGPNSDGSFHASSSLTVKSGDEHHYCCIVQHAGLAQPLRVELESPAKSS
FcRn, sequence (P61769 21-119 partner, species assumed): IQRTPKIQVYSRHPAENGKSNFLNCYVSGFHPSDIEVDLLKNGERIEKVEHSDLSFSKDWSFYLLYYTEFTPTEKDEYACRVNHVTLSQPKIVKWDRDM

human VEGF, sequence (P15692 207-320 limits assumed): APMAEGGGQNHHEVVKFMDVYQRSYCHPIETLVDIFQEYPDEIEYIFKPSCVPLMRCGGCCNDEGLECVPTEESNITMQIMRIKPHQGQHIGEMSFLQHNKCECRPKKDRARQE

ABT-165: dual-variable domain humanized immunoglobulin with dual specificity for DLL4 and VEGF; light chain SEQ ID No. 15, heavy chain SEQ ID No. 16
efficacy compared to anti-VEGF monoclonal antibody (alone or each with FOLFIRI) ([1]; colon cancer xenograft model, FIG. 1): superior efficacy | % TGI (percent tumor growth inhibition = 100 − (T/C × 100)) ([1]; day 26 post size match, mean tumor volume vs treatment control group, dose and regimen as in Table 4, n=9 per group): 67* % | affinity to DLL4 [2]: nanomolar affinities | affinity to VEGF [3]: nanomolar affinities | inhibition of DLL4-mediated Notch-1 activation [4]: potent inhibition | ability to stimulate cytokine release [5]: low ability | binding to FcRn [6]: pH-dependent binding to FcRn within the expected range of human IgG1
